For the series, the target named is T1, BCRP (Homo sapiens, UniProt Q9UNQ0).
T1 construct: expressed in transfected cells; host or cells: MDCKII
T1 sequence (Q9UNQ0 1-655): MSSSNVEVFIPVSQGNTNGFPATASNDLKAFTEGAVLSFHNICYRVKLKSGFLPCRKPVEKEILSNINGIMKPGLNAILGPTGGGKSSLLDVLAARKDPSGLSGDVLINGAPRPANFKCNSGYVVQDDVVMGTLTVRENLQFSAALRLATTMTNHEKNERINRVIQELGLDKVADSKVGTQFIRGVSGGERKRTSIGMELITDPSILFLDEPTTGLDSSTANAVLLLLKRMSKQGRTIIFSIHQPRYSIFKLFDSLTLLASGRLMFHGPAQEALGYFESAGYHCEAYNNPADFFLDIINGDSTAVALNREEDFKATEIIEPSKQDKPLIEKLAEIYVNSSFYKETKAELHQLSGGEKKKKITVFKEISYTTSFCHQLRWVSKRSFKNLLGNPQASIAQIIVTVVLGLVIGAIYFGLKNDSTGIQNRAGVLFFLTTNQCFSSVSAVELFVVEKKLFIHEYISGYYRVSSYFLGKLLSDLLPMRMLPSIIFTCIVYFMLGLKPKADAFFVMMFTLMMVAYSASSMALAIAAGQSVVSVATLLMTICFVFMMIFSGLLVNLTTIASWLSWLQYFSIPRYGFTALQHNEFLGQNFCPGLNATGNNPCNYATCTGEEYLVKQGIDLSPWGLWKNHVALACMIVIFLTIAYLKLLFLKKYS
The series is described as follows: Transwell assay, MDCKII cells stably expressing BCRP. The class given is cell-based. As to conditions: 100 µmol/L doxorubicin; MDCKII-BCRP on Transwell. The protocol: In brief, MDCKII cells stably expressing P-gp or BCRP were seeded on 0.4 µm Transwell® membrane inserts (200.000 cells/insert; Ø6.5 mm, growth area 0.33 cm2) and allowed to differentiate for five days. The integrity of the monolayer was confirmed by monitoring the trans-epithelial electrical resistance (TEER) using the EVOMX system (WPI, Sarasota, FL, USA). […] Every 30 min, the incubation buffer was removed from the receiver compartment and replaced by a freshly preheated buffer for a total time of 2.5 h.

As to `COc1cccc2c1C(=O)c1c(O)c3c(c(O)c1C2=O)C[C@@](O)(C(=O)CO)C[C@@H]3O[C@H]1C[C@H](N)[C@H](O)[C@H](C)O1` [doxorubicin, Doxorubicin], the “vectorial transport of doxorubicin by BCRP” value was “vectorial transport from the basolateral to the apical compartment”.
